Measurements from patent US4194006A, “Therapeutic application of acetyl-d,l-carnitine and other acyl derivatives of d,l-carnitine” (priority 1977, dated 1980).
Read-outs that look alike come from different tables or passages of the source.

What was measured:
isolated rabbit hearts [1] = experiment: cardiokinetic effect on isolated heart (Langendorff): contractile force after anoxia, positive inotropic effect; conditions: 10 minutes from interruption of anoxic period
Description: (§1) The cardiokinetic effect on isolated heart was also investigated as follows. Rabbit hearts isolated by the Langendorff method were perfused with oxygenized ringer solution at 38.2° C. The isometric contractions, electrocardiogram and coronary flow were recorded using a "Battaglia-Rangoni" polygraph. By removing the oxygen from the perfusion fluid, metabolic damage was induced in the cardia muscle, up to an 80% reduction in the cardiac contractile force.
(§2) Under these conditions of prolonged anoxia the aerobic glycolysis of the myocardium is slowed down, accompanied by the storage of acid catabolites due to both the accumulation of pyruvic acid and its conversion to lactic acid which cannot be utilized because of the depression of pyridine enzymes, such as LDH (lactodehydrogenase). This has repercussions on the anaerobic glycolysis affecting an ever increasing number of enzymes, accompanied by a progressive and increasingly critical exhaustion of the myocardium. Thus a whole series of cardiac muscle fatigue levels occurs which can be observed by the behavior of the examined parameters, namely the contractile force, coronary flow, heart rate and cardiac rhythm. As soon as the contractile force was reduced by 80%, the perfusion fluid was once again oxygenized either without adding other compounds (controls) or with the addition of the compounds under examination.
Table 3 below gives the percentage values of the contractile force of the heart, showing a positive inotropic effect, calculated after 10 minutes from the interruption of the anoxic period (myocardial restoration).

isolated rat atrium = experiment: antiarrhythmic effect, isolated rat atrium method of M. Libonati and G. Segre; conditions: Rattus norvegicus; for inhibition at 0.1 µg/mL / activation at 0.1 µg/mL: 1·10^-4 g/lt; for inhibition at 0.1 µg/mL / inhibition at 0.01 µg/mL / inhibition at 0.001 µg/mL: decrease; for activation at 0.1 µg/mL / activation at 0.01 µg/mL / activation at 0.001 µg/mL: increase; for inhibition at 0.01 µg/mL / activation at 0.01 µg/mL: 1·10^-5 g/lt; for inhibition at 0.001 µg/mL / activation at 0.001 µg/mL: 1·10^-6 g/lt
female rats = experiment: antifatigue effect: rota-rod; format: in vivo, rat; conditions: Rattus norvegicus, ip, 0.25 h, read-out: percentage of animals staying on the rota-rod more than 180 seconds; for responders at 300 mg/kg: 300 mg/kg i.p.; for responders at 400 mg/kg: 400 mg/kg i.p.; for responders at 600 mg/kg: 600 mg/kg i.p.
Description: The antifatigue effect was also examined with the following results. The antifatigue effect was investigated by administering the compounds of the formula (I) according to the present application to female rats intraperitoneally in saline solution and saline solution alone to the controls by the same route. Every 15 minutes (sessions) after treatment, the animals were placed on a 6 cm diameter rod, rotating at 16 r.p.m. The percentage of the animals capable of staying on the rota-rod for a duration of more than 180 seconds was then recorded.

isolated rabbit hearts [2] = experiment: coronary vasodilator effect: coronary flow, isolated heart (Langendorff)
Description: as §1, §2

[3] = read-out: Mean percent variation versus controls: excitability (-%)
[4] = read-out: Mean percent variation versus controls: frequency max (-%)
[5] = read-out: Mean percent variation versus controls: refractory period (+%)
[6] = read-out: Mean percent variation versus controls: rheobase (+%)
[7] = session 6 (every 15 minutes), * p < 0.05

Compound | Contractile force, Mean ± S.E. (isolated rabbit hearts [1]; 1·10^-5 g/lt) | Contractile force, Mean ± S.E. (isolated rabbit hearts [1]; 1·10^-6 g/lt) | Contractile force, Mean ± S.E. (isolated rabbit hearts [1]; 5·10^-6 g/lt) | inhibition at 0.1 µg/mL (isolated rat atrium; [3]) | inhibition at 0.1 µg/mL (isolated rat atrium; [4]) | activation at 0.1 µg/mL (isolated rat atrium; [5]) | activation at 0.1 µg/mL (isolated rat atrium; [6]) | inhibition at 0.01 µg/mL (isolated rat atrium; [3]) | inhibition at 0.01 µg/mL (isolated rat atrium; [4]) | activation at 0.01 µg/mL (isolated rat atrium; [5]) | activation at 0.01 µg/mL (isolated rat atrium; [6]) | inhibition at 0.001 µg/mL (isolated rat atrium; [3]) | inhibition at 0.001 µg/mL (isolated rat atrium; [4]) | activation at 0.001 µg/mL (isolated rat atrium; [5]) | activation at 0.001 µg/mL (isolated rat atrium; [6]) | responders at 300 mg/kg (female rats; session 1 (every 15 minutes)) | responders at 300 mg/kg (female rats; session 2 (every 15 minutes)) | responders at 300 mg/kg (female rats; session 3 (every 15 minutes)) | responders at 300 mg/kg (female rats; session 4 (every 15 minutes)) | responders at 300 mg/kg (female rats; session 5 (every 15 minutes)) | further results
CCCCCCCCCC(=O)OC(CC(=O)[O-])C[N+](C)(C)C (racemic) [decanoyl-d,l-carnitine] | 36.3 ± 6.53% | 26.9 ± 5.02% | 29.1 ± 3.12% | 25.2% | 24.8% | 21.6% | 21.2% | 17.2% | 12% | 10.3% | 9.54% | 0% | 8.66% | 9.14% | 3.12% | 0% | 0% | 0% | 10% | 10% | responders at 300 mg/kg (female rats; session 6 (every 15 minutes)): 10%; responders at 400 mg/kg (female rats; session 1 (every 15 minutes)): 0%; responders at 400 mg/kg (female rats; session 2 (every 15 minutes)): 0%; responders at 400 mg/kg (female rats; session 3 (every 15 minutes)): 0%; responders at 400 mg/kg (female rats; session 4 (every 15 minutes)): 10%; responders at 400 mg/kg (female rats; session 5 (every 15 minutes)): 10%; responders at 400 mg/kg (female rats; [7]): 10%; responders at 600 mg/kg (female rats; session 1 (every 15 minutes)): 0%; responders at 600 mg/kg (female rats; session 2 (every 15 minutes)): 0%; responders at 600 mg/kg (female rats; session 3 (every 15 minutes)): 0%; responders at 600 mg/kg (female rats; session 4 (every 15 minutes)): 10%; responders at 600 mg/kg (female rats; session 5 (every 15 minutes)): 10%; responders at 600 mg/kg (female rats; [7]): 20%; Coronary flow, Mean ± S.E. (isolated rabbit hearts [2]; 1·10^-5 g/lt): 83.21 ± 5.70%; Coronary flow, Mean ± S.E. (isolated rabbit hearts [2]; 1·10^-6 g/lt): 76.30 ± 9.42%; Coronary flow, Mean ± S.E. (isolated rabbit hearts [2]; 5·10^-6 g/lt): 72.60 ± 12.4%
CCCCCC(=O)OC(CC(=O)[O-])C[N+](C)(C)C (racemic) [hexanoyl-d,l-carnitine] | 38.0 ± 4.80% | 24.2 ± 3.88% | 28.8 ± 3.16% | 26.3% | 25.1% | 21.7% | 21.7% | 18.2% | 12.3% | 12.7% | 10.1% | 12.4% | 8.71% | 9.04% | 6.2% | 0% | 0% | 0% | 0% | 10% | responders at 300 mg/kg (female rats; session 6 (every 15 minutes)): 10%; responders at 400 mg/kg (female rats; session 1 (every 15 minutes)): 0%; responders at 400 mg/kg (female rats; session 2 (every 15 minutes)): 0%; responders at 400 mg/kg (female rats; session 3 (every 15 minutes)): 0%; responders at 400 mg/kg (female rats; session 4 (every 15 minutes)): 0%; responders at 400 mg/kg (female rats; session 5 (every 15 minutes)): 10%; responders at 400 mg/kg (female rats; [7]): 10%; responders at 600 mg/kg (female rats; session 1 (every 15 minutes)): 0%; responders at 600 mg/kg (female rats; session 2 (every 15 minutes)): 0%; responders at 600 mg/kg (female rats; session 3 (every 15 minutes)): 10%; responders at 600 mg/kg (female rats; session 4 (every 15 minutes)): 10%; responders at 600 mg/kg (female rats; session 5 (every 15 minutes)): 20%; responders at 600 mg/kg (female rats; [7]): 30%; Coronary flow, Mean ± S.E. (isolated rabbit hearts [2]; 1·10^-5 g/lt): 84.08 ± 5.14%; Coronary flow, Mean ± S.E. (isolated rabbit hearts [2]; 1·10^-6 g/lt): 76.25 ± 4.75%; Coronary flow, Mean ± S.E. (isolated rabbit hearts [2]; 5·10^-6 g/lt): 75.28 ± 8.36%
